Like-named read-outs stand apart in the source and are kept apart here.
Legend:
Bacteria 1 to 5 = assay: Antimicrobial activity test (overall statement); assay type: cell-based
Procedure: The antimicrobial activities of DGE against Escherichia coli W3110 (Bacterium 1), Salmonella typhimurium LT2 (Bacterium 2), Bacillus subtilis IFO3021 (Bacterium 3), Pseudomonas aeruginosa IFO3080 (Bacterium 4) and Streptococcus mutans GS5 (Bacterium 5) were examined as follows.
The Bacteria 1 to 4 were cultured overnight in L-broth. The cultures were diluted to a concentration of about 2×10^5 cells/180 μl with Sensitive Bouillon medium (Nissui) base on the turbidity. The Bacterium 5 was cultured overnight in Brain Heart Infusion medium. The culture was diluted to a concentration of about 2×10^5 cells/180 μl with Brain Heart Infusion medium based on the turbidity. 180 μl of each bacterial dilution was placed in each well of a 96-well microtiter plate. On the other hand, the respective bacterial dilutions were further diluted and spread onto plates of L-broth or Brain Heart Infusion medium. The plates were incubated at 37° C. overnight. The resulting colonies were counted to determine the stating viable cell numbers.
A 14.4 mg/ml DGE solution was diluted every 2-folds to prepare serial dilutions. 20 μl each of the dilutions was placed in the well in which the bacterial dilution had been placed. The cells were cultured at 37° C. for 24 hours without shaking. After cultivation, the turbidity of each culture was measured.
Furthermore, the culture from the well for which the growth of bacterial cells was not observed was spread onto plates. After the plates were incubated at 37° C. overnight, the colony number was counted to determine the viable cell number. […] The minimal growth-inhibitory concentrations and the minimal bacteriocidal concentrations of DGE for the Bacteria 1 to 5 were determined as shown in Table 2.

DSEK cells = assay: Antirheumatic activity test (DSEK cell growth, WST-1); assay type: cell-based, human; conditions: for antirheumatic activity (growth inhibition of rheumatoid cells) / IC50: DSEK cells; for IC50: Homo sapiens, read-out: concentration that results in the inhibition of the growth of half-cells (IC50)
Procedure: DSEK cell is a fibroblast cell line established from a synovial membrane of a human patient with chronic rheumatism and is held at Department of Second Internal Medicine, Integrated Medical Center, Saitama Collage of Medicine as an in vitro rheumatoid model. DSEK cells were cultured in Iscov-MEM medium (IMDM: Gibco-BRL) containing 10% FBS (Bio Whittaker) at 37° C. in the presence of 5% CO2 to confluence. The cells were suspended in the same medium at a concentration of 3×10^4 cells/ml using a trypsin-EDTA solution (Bio Whittaker). 200 μl of the suspension was dispensed into each well of a 96-well microtiter plate (Falcon). After culturing for 5 to 7 days at which time the cells grew to 80% confluence, the medium was changed to 200 μl of the above-mentioned medium containing DGE at a 25, 50, 75, 100, 200 or 400 μM.
After incubating for 24 or 72 hours, 10 μl of Premix WST-1 (Takara Shuzo, MK400) was added to the well. The mixture was reacted at 37° C. for 3.5 hours. The degree of cell growth was expressed by a value obtained by subtracting the absorbance at 650 nm (A650) from the absorbance at 450 nm (A450).

[1] = test system: Ehrlich's carcinoma cells; assay: Carcinostatic activity test, Ehrlich's carcinoma; assay type: in vivo, mice; conditions: for 30-day survival number: 6 mice per group, control 0; for Average days of survival: 30 days observation, control 14.3; for carcinostatic activity: mouse, in vivo
Procedure: (2) Ehrlich's carcinoma cells were administered to 18 female ddY mice (5 weeks old, weighing about 25 g) intraperitoneally (1.2×10^6 cells/mouse). Observation was continued for 30 days. The average days of survival, the prolongation rate and the 30-day survival number were then calculated. Mice were divided into 3 group each consisting of 6 mice. One was a control group, and other two groups received DGE at 2 mg/kg and 20 mg/kg, respectively. DGE was intraperitoneally administered for 4 days from the day after the administration of cancer.

[2] = DGE at 2 mg/kg intraperitoneally for 4 days
[3] = DGE at 20 mg/kg intraperitoneally for 4 days

Molecule | antimicrobial activity (Bacteria 1 to 5) | Degree of cell growth (A450-650) (DSEK cells; DGE 25 μM, culture period 24 hours, 0 μM 3.98) | Degree of cell growth (A450-650) (DSEK cells; DGE 25 μM, culture period 72 hours, 0 μM 3.94) | Degree of cell growth (A450-650) (DSEK cells; DGE 50 μM, culture period 24 hours, 0 μM 3.98) | Degree of cell growth (A450-650) (DSEK cells; DGE 50 μM, culture period 72 hours, 0 μM 3.94) | Degree of cell growth (A450-650) (DSEK cells; DGE 100 μM, culture period 24 hours, 0 μM 3.98) | Degree of cell growth (A450-650) (DSEK cells; DGE 100 μM, culture period 72 hours, 0 μM 3.94) | Degree of cell growth (A450-650) (DSEK cells; DGE 200 μM, culture period 24 hours, 0 μM 3.98) | Degree of cell growth (A450-650) (DSEK cells; DGE 200 μM, culture period 72 hours, 0 μM 3.94) | Degree of cell growth (A450-650) (DSEK cells; DGE 400 μM, culture period 24 hours, 0 μM 3.98) | Degree of cell growth (A450-650) (DSEK cells; DGE 400 μM, culture period 72 hours, 0 μM 3.94) | antirheumatic activity (growth inhibition of rheumatoid cells) (DSEK cells) | IC50 (DSEK cells; at 24 hours) [µM] | IC50 (DSEK cells; at 72 hours) [µM] | 30-day survival number [1, 2] | Average days of survival [1, 2] [days] | 30-day survival number [1, 3] | Average days of survival [1, 3] [days] | carcinostatic activity [1]
O=C1C=CC(CO)OC1O [DGE, L-glycero-1,5-epoxy-1αβ,6-dihydroxy-cis-hex-3-en-2-one] | exhibited an antimicrobial activity | 3.86 | 3.33 | 3.24 | 3.25 | 2.88 | 2.05 | 1.26 | 0.48 | 0.71 | 0.35 | the growth of the rheumatoid cells was strongly inhibited | 207 | 112 | 1 | 23.7 | 3 | 28.0 | exhibited a carcinostatic activity
5-L-glutathion-S-yl-2-hydroxy-3,7-dioxabicyclo[2.2.2]octan-1-ol [DGE-GSH] | also exhibited similar activities |  |  |  |  |  |  |  |  |  |  | also exhibited similar activities |  |  |  |  |  |  | also exhibited similar activities
O=C1C=CC(CO)OC1O [κ-DGE, D-glycero-1,5-epoxy-1αβ,6-dihydroxy-cis-hex-3-en-2-one] | also exhibited similar activities |  |  |  |  |  |  |  |  |  |  | also exhibited similar activities |  |  |  |  |  |  | also exhibited similar activities

Reference: patent US6531148B1, “Therapeutic agents” (Takara Shuzo Co., Ltd., priority 1998, dated 2003)
